{"source": "patent US11458189B2", "about": "“Cytoprotective drugs” (BALMES TRANSPLANTATION, priority 2017, dated 2022)", "tested_on": "Human Cardiac Microvascular Endothelial Cells (HCMEC)", "experiment": "Oxygen and glucose deprivation followed by replenishment, cell survival (calcein AM), HCMEC", "type": "cell-based", "procedure": "Anidulafungin and micafungin were tested on Human Renal Glomerular Endothelial Cells (HRGEC, Innoprot P10665), on Human Renal Proximal Tubular Epithelial Cells (HRPTEpiC, Innoprot P10662), on Human Astrocytes (HA, caltag SC-1800), on Human Cardiac Microvascular Endothelial Cells (HCMEC, Caltag SC-6000), on Human Hepatic Sinusoidal Endothelial Cells (HHSEC, Caltag SC-5000), on Rat Primary Kidney Glomerular Endothelial cells (Cellbiologics, RN-6014G) and on Bovine Brain Microvascular Endothelial Cells (BBMEC, Caltag SC-B100).\nIn a first phase, these isolated, purified and cryopreserved cells are thawed and multiplied according to the supplier's recommendations in T75 or T175 flasks pre-coated with 2 μg of fibronectin/[…] (CORNING) for HRGEC, HCMEC, HHSEC and BBMEC, or 2 μg poly-L-lysin/cm^2 (Caltag SC-0403) for HRPTEpiC and HA, or 15 mL/flask 175 cm^2 gelatin-based solution (Cellbiologics) in the presence of endothelial cell supplemented growth medium ECM (P60104, INNOPROT, Caltag, SC-1001) for HRGEC, HCMEC, HHSEC, RPKGEC or BBMEC, or astrocyte cell supplemented growth medium AM (Caltag SC-1801) for HA or epithelial cell supplemented growth medium EpiCM (P60106, INNOPROT) for HRPTEpiC, at 37° C. under 5% CO2 and saturated humidity until their confluency. They are then harvested by trypsinization according to the method described by the supplier for exactly 5 minutes and then reseeded in new flasks a maximum of three times.\nTo carry out the oxygen and glucose deprivation test followed by their replenishment, the cells will be seeded in 96-well black plates with transparent flat bottom (GREINER). Once a sufficient number of cells has been obtained to allow seeding of 2000 to 15000 cells per well of 96-well plates depending on the cell type, the cells are seeded in these 96-well plates previously coated with an extracellular matrix as listed above for the flasks. The cells are cultured for 5 to 8 days according to the cell type, in the presence of the same growth medium as in the flask as described above except for HRGEC and HRPTEpiC for which DMEM (DUTSCHER) with 1 g/L of supplemented glucose is used, at 37° C. under 5% CO2 and saturated humidity to obtain confluency.\nOn the first day of oxygen and glucose deprivation, (5th, 6th, 7th or 8th day of culture), the culture conditions are drastically changed. The medium of all plates is removed and replaced by DMEM (DUTSCHER) medium without glucose and supplemented only with 1% penicillin-streptomycin (DUTSCHER). Anidulafungin or micafungin dissolved in dimethyl sulfoxide (DMSO) is then added to each well at the desired concentration, resulting in a maximum of 1% DMSO, and the plates are placed under hypoxia at <1% 02 and 5% CO2 at 37° C. for 24 hours of culture. Each compound was tested in a concentration range.\nAfter 24 hours, the growth medium is changed and replaced by a richer medium, DMEM (DUTSCHER) at 1 g/L glucose and 2% FBS (INNOPROT) and 1% penicillin-streptomycin (DUTSCHER). These media will have been pre-equilibrated at 37° C. in advance. The cells are then returned to culture at 37° C. under 20% 02 and 5% CO2 for 22h.\nAfter 22 hours of reoxygenation, the potential protective effect of anidulafungin or micafungin is measured by a cell viability test using calcein AM (CORNING), which is a dye substrate. The calcein AM can easily cross the cell membrane of the viable cells. The AM ester groups mask the part of the molecule that chelates calcium. Once inside the cells, the (non-fluorescent) calcein AM is hydrolyzed to (fluorescent) calcein by endogenous esterases. The resulting calcein molecule binds to calcium inside the cell and remains trapped inside the cell. These molecules emit strong green fluorescence when subjected to […] of a particular wavelength (495 nm). Since dead cells lack esterase activity, only living cells are labelled.\nThis cell viability test is performed in two steps. […]", "note": "Starred links: 1 amine or outer side, 2 acyl side, 3 side chain; linkers in the order of their positions; H or OH if unused. Positions of bridges follow the written chain, without caps; N, C: chain ends. Non-standard residues stand in square brackets, D forms with d. Residues, ends and D or L forms follow the SMILES beside them. *: point of attachment. hTyr(3S-OH,4S-OH,3'-OSO3H) = N[C@H](C(=O)O)[C@H](O)[C@@H](O)c1ccc(O)c(OS(=O)(=O)O)c1; Orn(4R-OH,5R-OH) = O=C([C@H](C[C@@H](O)[C@@H](O)N[*:3])N[*:1])[*:2]; Pro(3S-OH,4S-Me) = C[C@H]1CN[C@H](C(=O)O)[C@H]1O; X1 = CCCCCOc1ccc(-c2cc(-c3ccc(C(=O)*)cc3)no2)cc1; Gln(3R-OH) = NC(=O)C[C@@H](O)[C@H](N)C(=O)O; Hyp = O=C(O)[C@@H]1C[C@@H](O)CN1", "data": [{"smiles": "CCCCCOc1ccc(-c2cc(-c3ccc(C(=O)N[C@H]4C[C@@H](O)[C@@H](O)NC(=O)[C@@H]5[C@@H](O)[C@@H](C)CN5C(=O)[C@H]([C@H](O)CC(N)=O)NC(=O)[C@H]([C@H](O)[C@@H](O)c5ccc(O)c(OS(=O)(=O)O)c5)NC(=O)[C@@H]5C[C@@H](O)CN5C(=O)[C@H]([C@@H](C)O)NC4=O)cc3)no2)cc1", "note": "[Micafungin, {5-[(1S,2S)-2-[(3S,6S,9S,11R,15S,18S,20R,21R,24S,25S,26S)-3-[(1R)-2-carbamoyl-1-hydroxyethyl]-11,20,21,25-tetrahydroxy-15-[(1R)-1-hydroxyethyl]-26-methyl-2,5,8,14,17,23-hexaoxo-18-[(4-{5-[4-(pentyloxy)phenyl]-1,2-oxazol-3-yl}benzene)amido]-1,4,7,13,16,22-hexaazatricyclo[22.3.0.0]heptacosan-6-yl]-1,2-dihydroxyethyl]-2-hydroxyphenyl}oxidanesulfonic acid] (X1-[Orn(4R-OH,5R-OH)]T[Hyp][hTyr(3S-OH,4S-OH,3'-OSO3H)][Gln(3R-OH)][Pro(3S-OH,4S-Me)]; lactam 1-C)", "values": [{"measurement": "Globalfluo assay 1", "setting": "[Micafungin] log μM 0", "value": 4455401, "unit": "arbitrary units"}, {"measurement": "Globalfluo assay 2", "setting": "[Micafungin] log μM 0", "value": 4660836, "unit": "arbitrary units"}, {"measurement": "Globalfluo assay 3", "setting": "[Micafungin] log μM 0", "value": 4639734, "unit": "arbitrary units"}, {"measurement": "Mean globalfluo", "setting": "[Micafungin] log μM 0", "value": 4585324, "unit": "arbitrary units"}, {"measurement": "Survival rate (%)", "setting": "[Micafungin] log μM 0", "value": "−3", "unit": "%"}, {"measurement": "Globalfluo assay 1", "setting": "[Micafungin] log μM 0.4771213", "value": 5103911, "unit": "arbitrary units"}, {"measurement": "Globalfluo assay 2", "setting": "[Micafungin] log μM 0.4771213", "value": 5348145, "unit": "arbitrary units"}, {"measurement": "Globalfluo assay 3", "setting": "[Micafungin] log μM 0.4771213", "value": 4886218, "unit": "arbitrary units"}, {"measurement": "Mean globalfluo", "setting": "[Micafungin] log μM 0.4771213", "value": 5112758, "unit": "arbitrary units"}, {"measurement": "Survival rate (%)", "setting": "[Micafungin] log μM 0.4771213", "value": 0, "unit": "%"}, {"measurement": "Globalfluo assay 1", "setting": "[Micafungin] log μM 0.7781513", "value": 5452718, "unit": "arbitrary units"}, {"measurement": "Globalfluo assay 2", "setting": "[Micafungin] log μM 0.7781513", "value": 4992821, "unit": "arbitrary units"}, {"measurement": "Globalfluo assay 3", "setting": "[Micafungin] log μM 0.7781513", "value": 6254079, "unit": "arbitrary units"}, {"measurement": "Mean globalfluo", "setting": "[Micafungin] log μM 0.7781513", "value": 5566539, "unit": "arbitrary units"}, {"measurement": "Survival rate (%)", "setting": "[Micafungin] log μM 0.7781513", "value": 3, "unit": "%"}, {"measurement": "Globalfluo assay 1", "setting": "[Micafungin] log μM 0.90309", "value": 5299685, "unit": "arbitrary units"}, {"measurement": "Globalfluo assay 2", "setting": "[Micafungin] log μM 0.90309", "value": 5787047, "unit": "arbitrary units"}, {"measurement": "Globalfluo assay 3", "setting": "[Micafungin] log μM 0.90309", "value": 5397439, "unit": "arbitrary units"}, {"measurement": "Mean globalfluo", "setting": "[Micafungin] log μM 0.90309", "value": 5494724, "unit": "arbitrary units"}, {"measurement": "Survival rate (%)", "setting": "[Micafungin] log μM 0.90309", "value": 3, "unit": "%"}, {"measurement": "Globalfluo assay 1", "setting": "[Micafungin] log μM 1", "value": 5522064, "unit": "arbitrary units"}, {"measurement": "Globalfluo assay 2", "setting": "[Micafungin] log μM 1", "value": 5305822, "unit": "arbitrary units"}, {"measurement": "Globalfluo assay 3", "setting": "[Micafungin] log μM 1", "value": 6090892, "unit": "arbitrary units"}, {"measurement": "Mean globalfluo", "setting": "[Micafungin] log μM 1", "value": 5639593, "unit": "arbitrary units"}, {"measurement": "Survival rate (%)", "setting": "[Micafungin] log μM 1", "value": 3, "unit": "%"}, {"measurement": "Globalfluo assay 1", "setting": "[Micafungin] log μM 1.079181", "value": 5365305, "unit": "arbitrary units"}, {"measurement": "Globalfluo assay 2", "setting": "[Micafungin] log μM 1.079181", "value": 5914359, "unit": "arbitrary units"}, {"measurement": "Globalfluo assay 3", "setting": "[Micafungin] log μM 1.079181", "value": 4948085, "unit": "arbitrary units"}, {"measurement": "Mean globalfluo", "setting": "[Micafungin] log μM 1.079181", "value": 5409250, "unit": "arbitrary units"}, {"measurement": "Survival rate (%)", "setting": "[Micafungin] log μM 1.079181", "value": 2, "unit": "%"}, {"measurement": "Globalfluo assay 1", "setting": "[Micafungin] log μM 1.176091", "value": 5886475, "unit": "arbitrary units"}, {"measurement": "Globalfluo assay 2", "setting": "[Micafungin] log μM 1.176091", "value": 5800515, "unit": "arbitrary units"}, {"measurement": "Globalfluo assay 3", "setting": "[Micafungin] log μM 1.176091", "value": 6203727, "unit": "arbitrary units"}, {"measurement": "Mean globalfluo", "setting": "[Micafungin] log μM 1.176091", "value": 5963572, "unit": "arbitrary units"}, {"measurement": "Survival rate (%)", "setting": "[Micafungin] log μM 1.176091", "value": 5, "unit": "%"}, {"measurement": "Globalfluo assay 1", "setting": "[Micafungin] log μM 1.30103", "value": 6537106, "unit": "arbitrary units"}, {"measurement": "Globalfluo assay 2", "setting": "[Micafungin] log μM 1.30103", "value": 5661218, "unit": "arbitrary units"}, {"measurement": "Globalfluo assay 3", "setting": "[Micafungin] log μM 1.30103", "value": 6414894, "unit": "arbitrary units"}, {"measurement": "Mean globalfluo", "setting": "[Micafungin] log μM 1.30103", "value": 6204406, "unit": "arbitrary units"}, {"measurement": "Survival rate (%)", "setting": "[Micafungin] log μM 1.30103", "value": 7, "unit": "%"}, {"measurement": "Globalfluo assay 1", "setting": "[Micafungin] log μM 1.477121", "value": 5692141, "unit": "arbitrary units"}, {"measurement": "Globalfluo assay 2", "setting": "[Micafungin] log μM 1.477121", "value": 6434487, "unit": "arbitrary units"}, {"measurement": "Globalfluo assay 3", "setting": "[Micafungin] log μM 1.477121", "value": 7272557, "unit": "arbitrary units"}, {"measurement": "Mean globalfluo", "setting": "[Micafungin] log μM 1.477121", "value": 6466395, "unit": "arbitrary units"}, {"measurement": "Survival rate (%)", "setting": "[Micafungin] log μM 1.477121", "value": 8, "unit": "%"}, {"measurement": "Globalfluo assay 1", "setting": "[Micafungin] log μM −0.5228788", "value": 4445501, "unit": "arbitrary units"}, {"measurement": "Globalfluo assay 2", "setting": "[Micafungin] log μM −0.5228788", "value": 5528681, "unit": "arbitrary units"}, {"measurement": "Globalfluo assay 3", "setting": "[Micafungin] log μM −0.5228788", "value": 4443191, "unit": "arbitrary units"}, {"measurement": "Mean globalfluo", "setting": "[Micafungin] log μM −0.5228788", "value": 4805791, "unit": "arbitrary units"}, {"measurement": "Survival rate (%)", "setting": "[Micafungin] log μM −0.5228788", "value": "−1", "unit": "%"}, {"measurement": "Globalfluo assay 1", "setting": "[Micafungin] log μM −1", "value": 4527783, "unit": "arbitrary units"}, {"measurement": "Globalfluo assay 2", "setting": "[Micafungin] log μM −1", "value": 4062591, "unit": "arbitrary units"}, {"measurement": "Globalfluo assay 3", "setting": "[Micafungin] log μM −1", "value": 5413646, "unit": "arbitrary units"}, {"measurement": "Mean globalfluo", "setting": "[Micafungin] log μM −1", "value": 4668007, "unit": "arbitrary units"}, {"measurement": "Survival rate (%)", "setting": "[Micafungin] log μM −1", "value": "−2", "unit": "%"}, {"measurement": "Globalfluo assay 1", "setting": "[Micafungin] log μM −2", "value": 4648220, "unit": "arbitrary units"}, {"measurement": "Globalfluo assay 2", "setting": "[Micafungin] log μM −2", "value": 3959524, "unit": "arbitrary units"}, {"measurement": "Globalfluo assay 3", "setting": "[Micafungin] log μM −2", "value": 4368024, "unit": "arbitrary units"}, {"measurement": "Mean globalfluo", "setting": "[Micafungin] log μM −2", "value": 4325256, "unit": "arbitrary units"}, {"measurement": "Survival rate (%)", "setting": "[Micafungin] log μM −2", "value": "−4", "unit": "%"}]}]}
